Measured values from patent US20230340012A1, “NATURAL AND SYNTHETIC COMPOUNDS FOR TREATING CANCER AND OTHER DISEASES” (PACIFIC ARROW LIMITED, priority 2009, published 2023).

Columns and labels:
U2OS = assay: MTT assay, bone (U2OS); type: cell-based, human
Procedure: (§1) Cells. HTB-9 (bladder), HeLa-S3 (cervix), DU145 (prostate), H460 (lung), MCF-7 (breast), K562 (leukemia), HCT116 (colon), HepG2 (liver), U2OS (bone), T98G (brain), SK-MEL-5 (Skin) and OVCAR 3, ES2 (ovary), Pancreas (Capan), Mouth (KB), Kidney(A498).
(§2) MTT Assay. The procedure for MTT assay followed the method described by Carmichael et al. (1987) with modifications. The cells were seeded into a 96-well plate at for 24 hours before drug-treatment. The cells were then exposed to the drugs for 48, 72, or 96 hours. After the drug-treatment, MTT (0.5 mg/mL) was added to cultures and incubated for an hour. The formazan (product of the reduction of tetrazolium by viable cells) formed and was dissolved with DMSO and the O.D. at 490 nm, and was measured by an ELISA reader. The MTT level of the cells before drug-treatment was also measured (T0). The % cell-growth (%G) is calculated as: %G = (TD-T0 / TC-T0) x 100(1), where TC or TD represents O.D. readings of control or drug-treated cells. When T0 > TD, then the cytotoxicity (LC) expressed as % of the control is calculated as: %LC = (TD-T0 / T0) × 100(2).

Capan = assay: MTT assay, pancreas (Capan); type: cell-based, human
Procedure: as §1, §2
• A. Cells: Capan cells are derived from Human pancreas carcinoma (pancreas). Cells were grown in RPMI 1640 medium supplemented with 10% FCS, antibiotics and glutamine. 10000 cells were seeded in a well (96-welled plate) for one day before drug-treatment • B. Drug treatment: • -- Drug: Tig-S (stored as a 1000x stock solution in DMSO) was used. • -- Drug concentration used: from 0.15 - 20 ug/ml. • -- Drug-treatment was carried out for 3 days. • C. At the end of the drug-treatment, cytotoxic test was performed with MTT assay. The percentage of drug-treated cells’ growth as compared to those of the no drug control is determined.

A498 = assay: MTT assay, kidney (A498); type: cell-based, human
Procedure: as §1, §2

HeLa = assay: MTT assay, cervix (HeLa); type: cell-based, human
Procedure: as §1, §2

KB = assay: MTT assay, mouth (KB); type: cell-based, human
Procedure: as §1, §2

OVCAR3 = assay: MTT assay, ovary (OVCAR3); type: cell-based, human; conditions: MTT
Procedure: as §1, §2

T98G = assay: MTT assay, brain (T98G); type: cell-based, human
Procedure: as §1, §2

MCF-7 = assay: MTT assay, breast (MCF-7); type: cell-based, human
Procedure: as §1, §2

HCT116 = assay: MTT assay, colon (HCT116); type: cell-based, human
Procedure: as §1, §2

HTB-9 = assay: MTT assay, bladder (HTB-9); type: cell-based, human
Procedure: as §1, §2

K562 = assay: MTT assay, leukemia (K562); type: cell-based, human
Procedure: as §1, §2

ES2 = assay: MTT assay, ovary (ES2); type: cell-based, human; conditions: MTT
Procedure: as §1, §2
Method: A. Cells • -WI38 is a Normal Lung fibroblast. Cells were grown in MEM medium supplemented with 10% FCS, antibiotics and glutamine. 20 K cells were seeded per well (96-welled plate) for one day before drug-treatment • -ES2 is an Ovary Clear cells carcinoma. Cells were grown in RPMI-1640 medium supplemented with 10% FCS, antibiotics and glutamine. 10 K cells were seeded per well (96-welled plate) for one day before drug-treatment.
B. Drug treatment: • -Drug: Tig-S. stored as 1000x stock solution in DMSO. • -Drug concentration used: from 0.15 - 20 ug/ml. • -Drug-treatment was carried out for 2 days (ES2) or 6 days (WI38). For the 6 days incubation, cells were fed with fresh medium (with drug) on day 3 and 5.
C. At the end of the drug-treatment, cytotoxic test was performed with MTT assay.

HepG2 = assay: MTT assay, liver (HepG2); type: cell-based, human
Procedure: as §1, §2

SK-Mel-5 = assay: MTT assay, skin (SK-Mel-5); type: cell-based, human
Procedure: as §1, §2

DU145 = assay: MTT assay, prostate (DU145); type: cell-based, human
Procedure: as §1, §2

H460 = assay: MTT assay, lung (H460); type: cell-based, human; conditions: MTT
Procedure: as §1, §2
Methods: • A. Cells • -- H460 cells are derived from a Human Lung large cell carcinoma. Cells were grown in RPMI 1640 medium supplemented with 10% FCS, antibiotics and glutamine. 5000 cells were seeded in a well (96-welled plate) for one day before drug-treatment • B. Drug treatment: • -- Drug: Tig-S (stored as a 1000x stock solution in DMSO) was used. • -- Drug concentration used: from 0.15 - 20 ug/ml. • -- Drug-treatment was carried out for 1, 2 and 4 days. For the 4 days incubation, cells were fed with fresh medium (with drug) on day 2. • C. At the end of the drug-treatment, cytotoxic test was performed with MTT assay. Results: • 1. Tig-S inhibits H460 cells’ growth with the IC50 of drug 3 ug/ml. • 2. […] cells growth inhibition was observed beyond drug 5 ug/ml. • 3. No dead cell was found at drug concentration in 20 ug/ml.

Hey8A cells = assay: Inhibition of cell adhesion, Hey8A; type: cell-based; conditions: 5 ug/ml, 5 hours
Procedure: (§3) Methods and Results. ES2 or Hey8A cells were plated in T25 flasks with medium containing 5 ug/ml of compounds selected from structure (2A) including E4A-Tig-R, E4A-Tig-V, E4A-Tig-S, E4A-Tig-N, E4A-Tig-Q, E4A-Tig-T. Cultures were incubated for 5 hours. Attached cells were removed from flasks by trypsinization and the numbers/amounts were counted. Compared to no drug controls, 80 ± 4% of ES2 cells and 60 ± 4% of Hey8A cells were found attached to flasks under this condition. At 5 ug/ml of above compounds, over 90% of unattached cells are alive as determined by the trypan Blue exclusion assay and by their ability to re-attach to flasks when plating in medium without tested compounds. However, with 10 ug/ml tested compounds, less than 40% of cells attached to flasks and many of them are dead cells.

cancer cells = assay: Inhibition of cancer growth, cancer invasion, cell invasion or cancer cell invasion; type: cell-based
Source text: The program is based on our purification methods and biological assays including the MTT assay. See International Application No. PCT/US05/31900, filed Sep. 7, 2005, U.S. Serial No. 11/289,142, filed Nov. 28, 2005, and U.S. Serial No. 11/131551, filed May 17, 2005, and PCT/US2008/002086, 1188-ALA-PCT, filed Feb. 15, 2008, 12/344,682, 1020-B1-US, filed Dec. 29, 2008. The details of Analysis of gene expression of ES2 cells after Y-treatment by Microarray, Data Analysis Methods and Western blot in PCT/US2008/002086, 1188-ALA-PCT, filed Feb. 15, 2008, and the cell invasion experiments methods in International Application PCT/US2010/0042240, filed Jul. 16, 2010.

Fibronectin = Fibronectin secretion experiment (Western blot); type: cell-based; conditions: bladder, cervix, prostate, lung, breast, leukemia, colon, liver, bone, brain, skin, ovary, pancreas, mouth, kidney cells; 24 hours
Procedure: Western blot is applied in this invention as a method to detect the specific proteins in treated and untreated cells with compounds in this invention, wherein the cells are bladder, cervix, prostate, lung, breast, leukemia, colon, liver, bone, brain, Skin, ovary, Pancreas(Capan), Mouth(KB), Kidney.
Cells: targeted cells were grown in RPMI 1640 medium. 1.5 million cells were seeded in a T25 flask and grown for 24 hours before drug-treatment.
Drug-treatment: Cells cultures were replaced with fresh RPMI medium containing either 2.5 ul of DMSO (as control) [D]; or 10, 20, 30, 40, 80 ug/ml of tested compounds.
After 24 hours, aliquot of culture medium was taken out for Fibronectin determination (Western blot method).
Cell viability at 24 hours was determined by MTT assay. Cultures were replaced with RPMI medium (5 ml) with MTT and incubated for an hour. The formation of formazan was dissolved in 10 ml of DMSO and OD at 570 nm was measured (MTT units). Western Blot: Spent culture medium was mixed with SDS sample buffer, boiled for 3 minutes before loading to SDS gel. Samples were applied to a 6-10% SDS gel and electrophoresis was conducted with 100 volts for 2 hours. Protein was transferred to a nitrocellulose membrane electrophoretically. The nitrocellulose blot was incubated with the first antibody and second antibody (AP conjugated, Promega S3721). The immuno-bands were developed with BCIP/NBT color development system.
Determination of Western blot band intensity: The band-images of Western blot were captured with a digital camera and the intensity of bands was determined using “Image J” software.

ES2 cells = assay: Inhibition of cell adhesion, ES2; type: cell-based, human; conditions: for ES2 cells attached to flasks compared to no drug controls / unattached cells alive: 5 ug/ml; for ES2 cells attached to flasks compared to no drug controls: 5 hours; for unattached cells alive: trypan Blue exclusion; for unattached cells alive / cells attached to flasks: ES2 or Hey8A; for cells attached to flasks: 10 ug/ml
Procedure: as §3

Row | IC50 of bone (U2OS) (U2OS) [µg/mL] | IC50 of cervix (HeLa) (HeLa) [µg/mL] | IC50 of mouth (KB) (KB) [µg/mL] | IC50 of ovary (OVCAR3) (OVCAR3) [µg/mL] | IC50 of breast (MCF-7) (MCF-7) [µg/mL] | IC50 of colon (HCT116) (HCT116) [µg/mL] | IC50 of leukemia (K562) (K562) [µg/mL] | IC50 of liver (HepG2) (HepG2) [µg/mL] | IC50 of skin (SK-Mel-5) (SK-Mel-5) [µg/mL] | IC50 of prostate (DU145) (DU145) [µg/mL] | IC50 of lung (H460) (H460) [µg/mL] | Structure (SMILES) | IC50 of pancreas (Capan) (Capan) [µg/mL] | IC50 of kidney (A498) (A498) [µg/mL] | IC50 of brain (T98G) (T98G) [µg/mL] | IC50 of bladder (HTB-9) (HTB-9) [µg/mL] | IC50 of ovary (ES2) (ES2) [µg/mL] | Hey8A cells attached to flasks compared to no drug controls (Hey8A cells) [%] | anti-cancer activity (cancer cells) | inhibition of fibronectin secretion (Fibronectin) | ES2 cells attached to flasks compared to no drug controls (ES2 cells) [%] | also measured
1 | 23 | 17 | 16 | 27 | 25 | 26 | 10 | 23 | 24 | 15 | 19 | CC=C(C)C(=O)OCC1(C)C(OC(=O)C(C)=CC)CCC2(C)C1CCC1(C)C2CC=C2C3CC(C)(C)C(OC(=O)C(C)=CC)C(O)C3(CO)C(O)CC21C (centres unmarked) [Tig-U] | 9 | 18 | 22 | 15 | 17 | – | – | – | – | –
2 | 20 | 20 | – | 23 | 18 | 22 | 6 | 24 | 20 | 15 | 18 | CC=C(C)C(=O)OCC1(C)C(O)CCC2(C)C1CCC1(C)C2CC=C2C3CC(C)(C)C(O)C(OC(=O)C(C)=CC)C3(CO)C(O)CC21C (centres unmarked) [Tig-Q] | 9 | 13 | 29 | 10 | – | 60 ± 4 | have anti-cancer activities | 20-40% | 80 ± 4 | unattached cells alive (ES2 cells): over 90%; cells attached to flasks (ES2 cells): less than 40%
3 | 7 | 7 | 4.5 | 9 | 9 | 8 | 4 | – | 6 | 4 | 6.8 | CC=C(C)C(=O)OCC1(C)C(O)CCC2(C)C1CCC1(C)C2CC=C2C3CC(C)(C)C(OC(=O)C(C)=CC)C(O)C3(COC(=O)C(C)=CC)C(O)CC21C (centres unmarked) [Tig-V] | – | 4.8 | 14 | 4 | 2 | 60 ± 4 | have anti-cancer activities | 20-40% | 80 ± 4 | unattached cells alive (ES2 cells): over 90%; cells attached to flasks (ES2 cells): less than 40%
